Test results published in PubChem BioAssay AID1259407 (Chemical Carcinogenesis Research Information System (CCRIS), 2018).
Active and inactive are the calls of the source. The rule behind the calls is not given here.

System: CCRIS mutagenicity, Ames/micronucleus/aberration tests
Assay: CCRIS mutagenicity studies
[1] = Test System: AMES SALMONELLA TYPHIMURIUM, Strain/Indicator: TA98, Metabolic Activation: NONE, Method: PREINCUBATION
[2] = Test System: AMES SALMONELLA TYPHIMURIUM, Strain/Indicator: TA100, Metabolic Activation: NONE, Method: PREINCUBATION
[3] = Test System: AMES SALMONELLA TYPHIMURIUM, Strain/Indicator: TA1535, Metabolic Activation: NONE, Method: PREINCUBATION
[4] = Test System: AMES SALMONELLA TYPHIMURIUM, Strain/Indicator: TA1537, Metabolic Activation: NONE, Method: PREINCUBATION

Measured: mutagenic call

O=Cc1ccc(O)cc1
inactive: [1] inactive; negative | Test System: AMES SALMONELLA TYPHIMURIUM, Strain/Indicator: TA98, Metabolic Activation: RAT LIVER S-9, PHENOBARBITAL AND BETA-NAPHTHOFLAVONE, Method: PREINCUBATION inactive; negative | [2] inactive; negative | Test System: AMES SALMONELLA TYPHIMURIUM, Strain/Indicator: TA100, Metabolic Activation: RAT LIVER S-9, PHENOBARBITAL AND BETA-NAPHTHOFLAVONE, Method: PREINCUBATION inactive; negative | [3] inactive; negative | Test System: AMES SALMONELLA TYPHIMURIUM, Strain/Indicator: TA1535, Metabolic Activation: RAT LIVER S-9, PHENOBARBITAL AND BETA-NAPHTHOFLAVONE, Method: PREINCUBATION inactive; negative | [4] inactive; negative | Test System: AMES SALMONELLA TYPHIMURIUM, Strain/Indicator: TA1537, Metabolic Activation: RAT LIVER S-9, PHENOBARBITAL AND BETA-NAPHTHOFLAVONE, Method: PREINCUBATION inactive; negative | Test System: AMES SALMONELLA TYPHIMURIUM, Strain/Indicator: TA1538, Metabolic Activation: NONE, Method: PREINCUBATION inactive; negative | Test System: AMES SALMONELLA TYPHIMURIUM, Strain/Indicator: TA1538, Metabolic Activation: RAT LIVER S-9, PHENOBARBITAL AND BETA-NAPHTHOFLAVONE, Method: PREINCUBATION inactive; negative | Test System: E.COLI, Strain/Indicator: WP2UVRA, Metabolic Activation: NONE, Method: PREINCUBATION inactive; negative | Test System: E.COLI, Strain/Indicator: WP2UVRA, Metabolic Activation: RAT LIVER S-9, PHENOBARBITAL AND BETA-NAPHTHOFLAVONE, Method: PREINCUBATION inactive; negative

Cc1cc(O)ccc1Cl
active: Test System: AMES SALMONELLA TYPHIMURIUM, Strain/Indicator: TA97, Metabolic Activation: RAT, LIVER, S-9, AROCLOR 1254, Method: STANDARD PLATE active; positive
inactive: Test System: AMES SALMONELLA TYPHIMURIUM, Strain/Indicator: TA97, Metabolic Activation: HAMSTER, LIVER, S-9, AROCLOR 1254 (10%), Method: PREINCUBATION inactive; negative | Test System: AMES SALMONELLA TYPHIMURIUM, Strain/Indicator: TA97, Metabolic Activation: HAMSTER, LIVER, S-9, AROCLOR 1254 (30%), Method: PREINCUBATION inactive; negative | Test System: AMES SALMONELLA TYPHIMURIUM, Strain/Indicator: TA97, Metabolic Activation: NONE, Method: PREINCUBATION inactive; negative | Test System: AMES SALMONELLA TYPHIMURIUM, Strain/Indicator: TA97, Metabolic Activation: NONE, Method: STANDARD PLATE inactive; negative | Test System: AMES SALMONELLA TYPHIMURIUM, Strain/Indicator: TA97, Metabolic Activation: RAT, LIVER, S-9, AROCLOR 1254 (10%), Method: PREINCUBATION inactive; negative | Test System: AMES SALMONELLA TYPHIMURIUM, Strain/Indicator: TA97, Metabolic Activation: RAT, LIVER, S-9, AROCLOR 1254 (30%), Method: PREINCUBATION inactive; negative | Test System: AMES SALMONELLA TYPHIMURIUM, Strain/Indicator: TA98, Metabolic Activation: HAMSTER, LIVER, S-9, AROCLOR 1254 (10%), Method: PREINCUBATION inactive; negative | Test System: AMES SALMONELLA TYPHIMURIUM, Strain/Indicator: TA98, Metabolic Activation: HAMSTER, LIVER, S-9, AROCLOR 1254 (30%), Method: PREINCUBATION inactive; negative | [1] inactive; negative | Test System: AMES SALMONELLA TYPHIMURIUM, Strain/Indicator: TA98, Metabolic Activation: NONE, Method: STANDARD PLATE inactive; negative | Test System: AMES SALMONELLA TYPHIMURIUM, Strain/Indicator: TA98, Metabolic Activation: RAT, LIVER, S-9, AROCLOR 1254 (10%), Method: PREINCUBATION inactive; negative | Test System: AMES SALMONELLA TYPHIMURIUM, Strain/Indicator: TA98, Metabolic Activation: RAT, LIVER, S-9, AROCLOR 1254 (30%), Method: PREINCUBATION inactive; negative | Test System: AMES SALMONELLA TYPHIMURIUM, Strain/Indicator: TA98, Metabolic Activation: RAT, LIVER, S-9, AROCLOR 1254, Method: STANDARD PLATE inactive; negative | Test System: AMES SALMONELLA TYPHIMURIUM, Strain/Indicator: TA100, Metabolic Activation: HAMSTER, LIVER, S-9, AROCLOR 1254 (10%), Method: PREINCUBATION inactive; negative | Test System: AMES SALMONELLA TYPHIMURIUM, Strain/Indicator: TA100, Metabolic Activation: HAMSTER, LIVER, S-9, AROCLOR 1254 (30%), Method: PREINCUBATION inactive; negative | [2] inactive; negative | Test System: AMES SALMONELLA TYPHIMURIUM, Strain/Indicator: TA100, Metabolic Activation: NONE, Method: STANDARD PLATE inactive; negative | Test System: AMES SALMONELLA TYPHIMURIUM, Strain/Indicator: TA100, Metabolic Activation: RAT, LIVER, S-9, AROCLOR 1254 (10%), Method: PREINCUBATION inactive; negative | Test System: AMES SALMONELLA TYPHIMURIUM, Strain/Indicator: TA100, Metabolic Activation: RAT, LIVER, S-9, AROCLOR 1254 (30%), Method: PREINCUBATION inactive; negative | Test System: AMES SALMONELLA TYPHIMURIUM, Strain/Indicator: TA100, Metabolic Activation: RAT, LIVER, S-9, AROCLOR 1254, Method: STANDARD PLATE inactive; negative | Test System: AMES SALMONELLA TYPHIMURIUM, Strain/Indicator: TA104, Metabolic Activation: NONE, Method: STANDARD PLATE inactive; negative | Test System: AMES SALMONELLA TYPHIMURIUM, Strain/Indicator: TA104, Metabolic Activation: RAT, LIVER, S-9, AROCLOR 1254, Method: STANDARD PLATE inactive; negative | Test System: AMES SALMONELLA TYPHIMURIUM, Strain/Indicator: TA1535, Metabolic Activation: HAMSTER, LIVER, S-9, AROCLOR 1254 (10%), Method: PREINCUBATION inactive; negative | Test System: AMES SALMONELLA TYPHIMURIUM, Strain/Indicator: TA1535, Metabolic Activation: HAMSTER, LIVER, S-9, AROCLOR 1254 (30%), Method: PREINCUBATION inactive; negative | [3] inactive; negative | Test System: AMES SALMONELLA TYPHIMURIUM, Strain/Indicator: TA1535, Metabolic Activation: NONE, Method: STANDARD PLATE inactive; negative | Test System: AMES SALMONELLA TYPHIMURIUM, Strain/Indicator: TA1535, Metabolic Activation: RAT, LIVER, S-9, AROCLOR 1254 (10%), Method: PREINCUBATION inactive; negative | Test System: AMES SALMONELLA TYPHIMURIUM, Strain/Indicator: TA1535, Metabolic Activation: RAT, LIVER, S-9, AROCLOR 1254 (30%), Method: PREINCUBATION inactive; negative | Test System: AMES SALMONELLA TYPHIMURIUM, Strain/Indicator: TA1535, Metabolic Activation: RAT, LIVER, S-9, AROCLOR 1254, Method: STANDARD PLATE inactive; negative | Test System: AMES SALMONELLA TYPHIMURIUM, Strain/Indicator: TA1537, Metabolic Activation: HAMSTER, LIVER, S-9, AROCLOR 1254 (30%), Method: PREINCUBATION inactive; negative | [4] inactive; negative | Test System: AMES SALMONELLA TYPHIMURIUM, Strain/Indicator: TA1537, Metabolic Activation: NONE, Method: STANDARD PLATE inactive; negative | Test System: AMES SALMONELLA TYPHIMURIUM, Strain/Indicator: TA1537, Metabolic Activation: RAT, LIVER, S-9, AROCLOR 1254 (30%), Method: PREINCUBATION inactive; negative | Test System: AMES SALMONELLA TYPHIMURIUM, Strain/Indicator: TA1537, Metabolic Activation: RAT, LIVER, S-9, AROCLOR 1254, Method: STANDARD PLATE inactive; negative

C=CC(=O)CC
active: [2] active; positive | Test System: AMES SALMONELLA TYPHIMURIUM, Strain/Indicator: TA100, Metabolic Activation: RAT, LIVER, S-9, AROCLOR, Method: PREINCUBATION active; positive
